From paper PMC2954893, “MHC Class I Bound to an Immunodominant Theileria parva Epitope Demonstrates Unconventional Presentation to T Cell Receptors” (PLoS Pathogens, 2010)

Experiments:
N*01301 = experiment: RMA-S MHC stabilization assay (peptide binding, pBL50); set-up: species or system cattle; details: RMA-S cells transfected with N*01301; peptides 0.1 nM to 1 mM; surface N*01301 detected with mAb IL-A88 by flow; reference peptide TIMPKDIQL
Procedure: A 9mer self-peptide (TIMPKDIQL) shown to have a high binding affinity to N*01301 was used throughout as a positive control in flow-based MHC stabilization assays (see Materials and Methods for details). In order to systematically explore the relative contribution to binding affinity made by amino acids at each position, a sequential alanine-scan of the self-peptide was made (Fig. 1A). Dose/FI curves were created for each peptide (using peptides at concentrations between 0.1 nM and 1 mM) and presented as semi-logarithmic plots as in previous studies ([25], supporting information (SI) Fig. S1). The high binders have low half-maximal binding level (BL50) values (high pBL50) and the low binders have high BL50 values (low pBL50). […]
RMA-S is a mouse lymphoma cell line with a deficiency in MHC class I antigen processing which has been used extensively to study binding of peptides to MHC class I [37]. […] Results are expressed as fluorescence index (FI) values. These were calculated as the test mean fluorescence intensity (MFI) minus the no-peptide isotype control MFI divided by the no-peptide N*01301-stained control MFI minus the no-peptide isotype control MFI. The half-maximal binding level (BL50), which is the peptide concentration yielding the half-maximal FI of the reference peptide in each assay, was calculated and presented as pBL50 (–logBL50). […]

responding T cells = details: T. parva-immune A18-homozygous animals; cited from earlier work
Excerpt: Several CD8^+ T cell epitopes in T. parva have been identified recently, [17], [18]. […] This allele is expressed alone on the haplotype designated A18, which is common in the British Friesian breed. Although this is not the only single gene class I MHC haplotype in cattle, it remains an unu ...

[1] = tested on: Tp1_214–224-specific CD8+ T cell clones; experiment: 4-hour 111Indium release cytotoxicity assay with peptide-pulsed target cells; assay type: cell-based, cattle; details: 22 CD8+ T cell clones; example in Fig S6
Excerpt: Twenty-two Tp1_214–224-specific CD8^+ T cell clones, derived from 2 T. parva-immune animals (641 and 633), were examined for their ability to recognize a series of Ala-substituted versions of Tp1_214–224 (as detailed in Fig 1), using a cytotoxicity assay. All clones gave near maximal levels of killing of cells pulsed with the native peptide (ranging from 21% to 100% for different clones) down to a concentration of 10 pg/ml (example shown in Fig S6). The results obtained with the Ala-substituted peptides tested at 1 ng/ml (i.e. well above the minimal concentration required to obtain maximal killing), are summarized in Fig 5. The most striking finding was the abolition (or near abolition) of recognition by all T cell clones of 2 or more of the peptides substituted at positions 6–9. Based on major effects on recognition of peptides substituted at positions 6, 7 and 8, the 22 clones fell into 4 groups each with broadly similar specificity. Nine clones were profoundly influenced by residues 6 and 8, seven clones by residues 7 and 8, four clones by residue 7 and two clones by residue 8. […] Substitutions at positions 3 and 4 also had substantial effects on recognition by some clones.
Figure 5 Effects of single alanine substitutions in the Tp1_214–224 epitope on recognition by specific CD8^+ T cell clones. […]

Row | Sequence | binding to N*01301 (pBL50 class) (N*01301) | share of responding T cells specific for the peptide (responding T cells) | peptide concentration down to which all clones gave near maximal killing [1]
1 | TIMPKDIQL | high (for high binding >5 (BL50 <10^−5)) | – | –
2 | VGYPKVKEEML [Tp1_214–224] | – | over 75% | 10 pg/mL
